The text below walks through data of ChEMBL document CHEMBL3045584, “1-(6-Halonicotinyl)-2-nitromethylene-imidazolidines as Potential New Insecticides” (1992).

The source made the active and inactive calls. No cut-off for these calls is given here.

One assay has as its system Nephotettix cincticeps. Nature of the assay: Insecticidal activity against Nephotettix cincticeps (green rice leafhopper) measured after 5 days. It is filed as functional.
Compound `Cc1ccc(CN2CCN/C2=C\[N+](=O)[O-])cn1` displayed an LC90 of 1.6 ppm. Still for that read-out and setting: in the case of `N#Cc1ccc(CN2CCN/C2=C\[N+](=O)[O-])cn1` it was 200 ppm. As for `O=[N+]([O-])/C=C1\NCCN1Cc1ccccc1`, the LC90 stood at 200 ppm. The same measure, in the same setting: the same measure for `O=[N+]([O-])/C=C1\NCCN1Cc1ccc([N+](=O)[O-])cc1`: 200 ppm; for `O=[N+]([O-])/C=C1\NCCN1Cc1ccnc(Cl)c1`: 200 ppm; for `O=[N+]([O-])/C=C1\NCCN1Cc1ccccn1`: 200 ppm. Take `O=[N+]([O-])/C=C1\NCCN1Cc1cncc(Cl)c1`: the LC90 is 40 ppm. The compound `O=[N+]([O-])/C=C1\NCCN1Cc1cccnc1` had an LC90 of 8 ppm. Still for that read-out and setting: the same measure for `O=[N+]([O-])/C=C1\NCCN1Cc1ccc(Br)nc1`: 0.32 ppm. The same measure, in the same setting: the same measure for `O=[N+]([O-])/C=C1\NCCN1Cc1ccc(Cl)nc1`: 0.32 ppm. Same read-out and setting: the same measure for `O=[N+]([O-])/C=C1\NCCN1Cc1ccc(F)nc1`: 0.32 ppm; for `COc1ccc(CN2CCN/C2=C\[N+](=O)[O-])cc1`: 200 ppm; for `CSc1ccc(CN2CCN/C2=C\[N+](=O)[O-])cn1`: 1000 ppm. `O=[N+]([O-])/C=C1\NCCN1Cc1ccc(Cl)cn1` had an LC90 of 200 ppm. The same measure, in the same setting: in the case of `Cc1ccc(CN2CCN/C2=C\[N+](=O)[O-])cc1` it was 200 ppm; in that of `O=[N+]([O-])C=C1NCCN1` [2-(NITROMETHYLENE)IMIDAZOLIDINE], 1000 ppm; in that of `O=[N+]([O-])/C=C1\NCCN1Cc1cccnc1Cl`, 200 ppm. As for `O=[N+]([O-])/C=C1\NCCN1Cc1ccc(Cl)cc1`, the LC90 is listed as 40 ppm. In turn, `O=[N+]([O-])/C=C1\NCCN1Cc1ccc(C(F)(F)F)nc1` displayed an LC90 of 8 ppm. Same read-out and setting: in the case of `O=[N+]([O-])/C=C1\NCCN1Cc1cccc(Cl)c1` it was 200 ppm. For the compound `O=[N+]([O-])/C=C1\NCCN1Cc1ccncc1`, the LC90 amounted to 8 ppm.

Another assay deals with Nephotettix cincticeps. Put plainly: Insecticidal activity against Nephotettix cincticeps (green rice leafhopper) measured at 100 ppm after 5 days. It is filed as functional, organism-based.
As to `O=[N+]([O-])/C=C1\NCCN1Cc1ccccc1Cl`, the LC90 entry is “inactive”.
